Patent US9216981B2, “Purinylpyridinylamino-2,4-difluorophenyl sulfonamide derivative, pharmaceutically acceptable salt thereof, preparation method thereof, and pharmaceutical composition with inhibitory activity against Raf kinase, containing same as active ingredient” (Medpacto, Inc., priority 2010, dated 2015)

Tests used:
[1] = molecular target: B-Raf (Homo sapiens (Human), UniProt P15056); experiment: B-Raf kinase activity (B-Raf/MEK1/MAPK2 cascade, MBP phosphorylation, [γ-32P]ATP); format: biochemical; details: activated B-Raf, inactivated MEK1, inactivated MAPK2, 30° C., 30 minutes, read-out: B-Raf Enzyme Activity
Sequence of B-Raf (P15056 whole entry): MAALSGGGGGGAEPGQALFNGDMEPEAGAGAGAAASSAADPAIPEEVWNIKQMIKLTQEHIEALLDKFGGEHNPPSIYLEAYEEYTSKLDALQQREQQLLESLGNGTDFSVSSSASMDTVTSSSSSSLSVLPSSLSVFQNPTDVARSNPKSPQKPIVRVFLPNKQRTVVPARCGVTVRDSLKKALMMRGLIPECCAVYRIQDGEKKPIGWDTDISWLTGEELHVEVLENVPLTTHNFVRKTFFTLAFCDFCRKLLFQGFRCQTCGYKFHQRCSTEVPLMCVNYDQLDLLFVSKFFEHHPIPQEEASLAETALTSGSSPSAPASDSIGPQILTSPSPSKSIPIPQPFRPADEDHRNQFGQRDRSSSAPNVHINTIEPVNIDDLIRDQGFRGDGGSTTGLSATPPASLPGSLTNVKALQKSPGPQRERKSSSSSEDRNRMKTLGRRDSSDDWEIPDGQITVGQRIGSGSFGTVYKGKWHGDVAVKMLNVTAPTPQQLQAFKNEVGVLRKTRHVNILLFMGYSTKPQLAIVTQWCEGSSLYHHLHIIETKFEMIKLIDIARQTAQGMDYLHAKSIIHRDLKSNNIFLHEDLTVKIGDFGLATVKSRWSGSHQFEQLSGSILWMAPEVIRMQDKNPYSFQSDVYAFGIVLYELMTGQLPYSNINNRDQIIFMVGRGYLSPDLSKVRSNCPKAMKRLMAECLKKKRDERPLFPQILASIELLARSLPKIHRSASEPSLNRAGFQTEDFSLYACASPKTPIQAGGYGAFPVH
Procedure: To check the B-Raf kinase inhibitory activity of the compounds of the present invention, the following experiments were conducted.
20 μl of diluting solvent (20 mM MOPS, pH 7.2, 25 mM β-glycerol phosphate, 5 mM EGTA, 1 mM sodium orthovanadate, 1 mM dithiothreitol) and 10 μl of Mg/ATP mixed solution (500 μM ATP, 75 mM magnesium chloride) were added into a centrifuge tube, the derivative compound of Formula 1 was added or the compounds of the Examples were not added as a control group, and then 1 ng of activated B-Raf, 0.4 ng of inactivated MEK1, and 1 μg of inactivated MAPK2 were added. The solutions in the tube were collected on the bottom via centrifugation and were reacted at 30° C. for 30 minutes. After taking 4 μl of the mixed solution, the test proceeded to the next step.
(2) Phosphorylation of Matrix Protein MBP by MAPK2
10 μl of diluting solvent, 20 μg of MBP used as a matrix, and 10 μl of diluted [γ-32P]ATP (1 μCi/μL) were added into the 4 μl of the mixed solution obtained from (1). The solutions in the tube were collected on the bottom via centrifugation and were reacted at 30° C. for 30 minutes. And 25 μl of the reacted solution was put carefully on the center of a filter paper (2 cm×2 cm P81) for 30 seconds. Afterwards, the filter paper was cleaned with 0.75% phosphoric acid for 10 minutes three times and with acetone for 5 minutes one time. The filter paper was then moved to a scintillation vial and 5 ml of scintillation cocktail was added thereto. The inhibition rate (IC50) over B-Raf activity was measured by reading radioactivity through a scintillation counter while comparing to the control group.

[2] = tested on: A375P cell line; experiment: B-Raf cell activity inhibition (A375P growth inhibition, MTT assay); format: cell-based; details: A375P human melanoma, V600E mutant of B-Raf, 72 hours
Procedure: To check the B-Raf cell activity inhibitory capability of the compounds of the present invention, the following experiments were conducted in A375P cell line (ATCC). […] A375 cell was maintained in DMEM supplemented with 10% fetal bovine serum, glutamine (2 mM), penicillin (100 U/mL), and streptomycin (100 μg/mL). The cell was maintained at 37° C., and in 5% CO2 and 100% humidity. To conduct the growth inhibition test, the cell was plated by using a white 384-well microplate, with 1000 cells/20 μl plated per 1 well. After 24 hours, 5 μl of 5× stock solution of drug was added. All the drugs were initially prepared with 200× stock solution in DMSO, and the final concentration of DMSO was 0.5%. The cell was incubated at 37° C. for 72 hours. For MTT assay, ‘CellTiter 96 (R) Non-Radioactive Cell Proliferation Assay (G4100)’ kit by Promega Corp. was used. 15 μl of dye solution of the Promega kit was put into each well and was cultured in the incubator for 4 hours. And 100 μl of each Solubilization/Stop Solution substance of the kit was added and fixed in the incubator for 24 hours again. And then, absorbance was measured by using a 96-well plate reader with 570 nm of absorbance.

| SMILES | IC50 [1] | IC50 [2] |
| --- | --- | --- |
| O=S(=O)(Nc1ccc(F)c(Nc2ncccc2-c2ncnc3[nH]cnc23)c1F)c1ccc(F)c(Cl)c1 [Example 28, N-(3-(3-(9H-purin-6-yl)pyridin-2-ylamino)-2,4-difluorophenyl)-3-chloro-4-fluorobenzenesulfonamide] | 300 nM | 1930 nM |
| O=S(=O)(Nc1ccc(F)c(Nc2ncccc2-c2ncnc3[nH]cnc23)c1F)c1cccc(Cl)c1F [Example 29, N-(3-(3-(9H-purin-6-yl)pyridin-2-ylamino)-2,4-difluorophenyl)-3-chloro-2-fluorobenzenesulfonamide] | 80 nM | 720 nM |
| O=S(=O)(Nc1ccc(F)c(Nc2ncccc2-c2ncnc3[nH]cnc23)c1F)c1cccnc1 [Example 30, N-(3-(3-(9H-purin-6-yl)pyridin-2-ylamino)-2,4-difluorophenyl)pyridin-3-sulfonamide] | 4 nM | 70 nM |
| Cc1ccccc1S(=O)(=O)Nc1ccc(F)c(Nc2ncccc2-c2ncnc3[nH]cnc23)c1F [Example 31, N-(3-(3-(9H-purin-6-yl)pyridin-2-ylamino)-2,4-difluorophenyl)-2-methylbenzenesulfonamide] | 50 nM | 670 nM |
| O=S(=O)(Nc1ccc(F)c(Nc2ncccc2-c2ncnc3[nH]cnc23)c1F)c1ccccc1Cl [Example 32, N-(3-(3-(9H-purin-6-yl)pyridin-2-ylamino)-2,4-difluorophenyl)-2-chloro benzenesulfonamide] | 30 nM | 440 nM |
| O=S(=O)(Nc1ccc(F)c(Nc2ncccc2-c2ncnc3[nH]cnc23)c1F)c1cccc(Cl)c1 [Example 33, N-(3-(3-(9H-purin-6-yl)pyridin-2-ylamino)-2,4-difluorophenyl)-3-chloro benzenesulfonamide] | 80 nM | 770 nM |
| O=S(=O)(Nc1ccc(F)c(Nc2ncccc2-c2ncnc3[nH]cnc23)c1F)c1cccc(Cl)c1Cl [Example 34, N-(3-(3-(9H-purin-6-yl)pyridin-2-ylamino)-2,4-difluorophenyl)-2,3-chlorobenzenesulfonamide] | 40 nM | 500 nM |
| O=S(=O)(Nc1ccc(F)c(Nc2ncccc2-c2ncnc3[nH]cnc23)c1F)c1ccccc1 [Example 35, N-(3-(3-(9H-purin-6-yl)pyridin-2-ylamino)-2,4-difluorophenyl)benzenesulfonamide] | 20 nM | 160 nM |
| O=S(=O)(Nc1ccc(F)c(Nc2ncccc2-c2ncnc3[nH]cnc23)c1F)c1cccc2c1OCC2 [Example 36, N-(3-(3-(9H-purin-6-yl)pyridin-2-ylamino)-2,4-difluorophenyl)-2,3-dihydrobenzofuran-7-sulfonamide] | 1020 nM | 8370 nM |
| O=S(=O)(Nc1ccc(F)c(Nc2ncccc2-c2ncnc3[nH]cnc23)c1F)c1cccc2ccoc12 [Example 37, N-(3-(3-(9H-purin-6-yl)pyridin-2-ylamino)-2,4-difluorophenyl)benzofuran-7-sulfonamide] | 90 nM | 810 nM |
| O=S(=O)(Nc1ccc(F)c(Nc2ncccc2-c2ncnc3[nH]cnc23)c1F)c1cccc2c1OCCC2 [Example 38, N-(3-(3-(9H-purin-6-yl)pyridin-2-ylamino)-2,4-difluorophenyl)chromane-8-sulfonamide] | 900 nM | 7190 nM |
| Cc1nc2ccc(S(=O)(=O)Nc3ccc(F)c(Nc4ncccc4-c4ncnc5[nH]cnc45)c3F)cc2s1 [Example 39, N-(3-(3-(9H-purin-6-yl)pyridin-2-ylamino)-2,4-difluorophenyl)-2-methylbenzo[d]thiazole-6-sulfonamide] | 400 nM | 2930 nM |
| Cn1ccc2cc(S(=O)(=O)Nc3ccc(F)c(Nc4ncccc4-c4ncnc5[nH]cnc45)c3F)ccc21 [Example 40, N-(3-(3-(9H-purin-6-yl)pyridin-2-ylamino)-2,4-difluorophenyl)-1-methyl-1H-indole-5-sulfonamide] | > 10000 nM | > 15000 nM |
| Cn1ccc2c(S(=O)(=O)Nc3ccc(F)c(Nc4ncccc4-c4ncnc5[nH]cnc45)c3F)cccc21 [Example 41, N-(3-(3-(9H-purin-6-yl)pyridin-2-ylamino)-2,4-difluorophenyl)-1-methyl-1H-indole-4-sulfonamide] | 550 nM | 4200 nM |
| Cn1ccc2cccc(S(=O)(=O)Nc3ccc(F)c(Nc4ncccc4-c4ncnc5[nH]cnc45)c3F)c21 [Example 42, N-(3-(3-(9H-purin-6-yl)pyridin-2-ylamino)-2,4-difluorophenyl)-1-methyl-1H-indole-7-sulfonamide] | 800 nM | 5870 nM |
| Cn1cc(S(=O)(=O)Nc2ccc(F)c(Nc3ncccc3-c3ncnc4[nH]cnc34)c2F)cn1 [Example 43, N-(3-(3-(9H-purin-6-yl)pyridin-2-ylamino)-2,4-difluorophenyl)-1-methyl-1H-pyrazole-4-sulfonamide] | 120 nM | 1370 nM |
